From US20250073226A1, “USE OF OPIOID FOR TREATMENT OF AUTISM SPECTRUM DISORDERS” (priority 2021, published 2025)

System: VPA model
Assay: Confirmation of continuous effect: social behavior in VPA model 3 or 12 hours after administration
Assay type: in vivo, mice
Details: 0.003 mg/kg s.c.
Method: Saline or buprenorphine was subcutaneously administered to the VPA model in the same manner as in Example 1, and the amount of social behavior for 20 minutes from 3 hour after administration or for 20 minutes from 12 hours after administration was quantified. The improvement effect in social impairment by administration of 0.003 mg/kg of buprenorphine was observed even 3 hours and 12 hours after administration.

With `CO[C@]12CC[C@@]3(C[C@@H]1[C@](C)(O)C(C)(C)C)[C@H]1Cc4ccc(O)c5c4[C@@]3(CCN1CC1CC1)[C@H]2O5` [buprenorphine, 21-cyclopropyl-7-a-[(S)-1-hydroxy-1,2,2-trimethylpropyl]-6,14-endo-ethano-6,7,8,14 tetrahydrooripavine] the “improvement effect in social impairment 3 hours after administration” value (20 minutes from 3 hour after administration) was “observed” and the “improvement effect in social impairment 12 hours after administration” value (20 minutes from 12 hours after administration) was “observed”.
